ChEMBL document CHEMBL1201862, “PubChem BioAssay data set” (2004)
Values joined by “and” are separate entries in the source; they are usually repeats but may differ in a detail not shown here. Equal values may be shown once.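 Compound exposure: 48 hours, 5 concentrations, 96-well plates. The concentration for 50% growth inhibition is given as GI50.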 Active and inactive are the calls of the source. No stated cut-off is given here; in the data, active = GI50 up to about 1.1 µM and inactive = higher.

How the values were obtained:
Assay in all cases: NCI anticancer screen, dose series, 48 h
BT-549 = system: BT-549
CAKI-1 = system: CAKI-1
CCRF-CEM = system: CCRF-CEM
COLO 205 = system: COLO 205
DU-145 = system: DU-145
EKVX = system: EKVX
HCC 2998 = system: HCC 2998
HCT-15 = system: HCT-15
HL-60 = system: HL-60
Hs-578T = system: Hs-578T
IGROV-1 = system: IGROV-1
K562 = system: K562
KM12 = system: KM12
LOX IMVI = system: LOX IMVI
MCF7 = system: MCF7
MDA-MB-435 = system: MDA-MB-435
MDA-N = system: MDA-N
MOLT-4 = system: MOLT-4
Malme-3M = system: Malme-3M
NCI-H226 = system: NCI-H226
OVCAR-3 = system: OVCAR-3
OVCAR-4 = system: OVCAR-4
OVCAR-5 = system: OVCAR-5
OVCAR-8 = system: OVCAR-8
PC-3 = system: PC-3
RXF 393 = system: RXF 393
SF-295 = system: SF-295
SK-MEL-28 = system: SK-MEL-28
SK-MEL-2 = system: SK-MEL-2
SK-OV-3 = system: SK-OV-3
SN12C = system: SN12C
SNB-19 = system: SNB-19
SR = system: SR
SW-620 = system: SW-620
TK-10 = system: TK-10
U-251 = system: U-251
UACC-257 = system: UACC-257
UACC-62 = system: UACC-62
UO-31 = system: UO-31
786-0 = system: 786-0
A498 = system: A498
A549 = system: A549
ACHN = system: ACHN
HCT-116 = system: HCT-116
HOP-62 = system: HOP-62
HOP-92 = system: HOP-92
HT-29 = system: HT-29
M14 = system: M14
MDA-MB-231 = system: MDA-MB-231
NCI-H23 = system: NCI-H23
NCI-H460 = system: NCI-H460
NCI-H522 = system: NCI-H522
NCI/ADR-RES = system: NCI/ADR-RES
RPMI-8226 = system: RPMI-8226
SF-268 = system: SF-268
SF-539 = system: SF-539
SK-MEL-5 = system: SK-MEL-5
SNB-75 = system: SNB-75

Measured: GI50

N#Cc1c2c(c(-c3cccs3)n(C3OC(CO)C(O)C(O)C3O)c1=S)CCc1ccccc1-2 (stereo not drawn)
7.03 µM and 6.32 µM: HCT-15
inactive: BT-549 > 100 µM | CAKI-1 6.65 µM and 6.14 µM | CCRF-CEM > 57.8 µM and 36.8 µM | COLO 205 30 µM and 40 µM | DU-145 > 100 µM | EKVX > 24.9 µM | HCC 2998 59.8 µM and > 41.5 µM | HL-60 > 20.9 µM | Hs-578T 8.97 µM and 5.97 µM | IGROV-1 97.9 µM and > 86.3 µM | K562 6.58 µM and 4.93 µM | KM12 > 45.6 µM and 38.2 µM | LOX IMVI > 22.3 µM and > 22.2 µM | MCF7 5.42 µM and 3.85 µM | MDA-MB-435 3.36 µM and 3.44 µM | MDA-N 6.4 µM and 4.23 µM | MOLT-4 8.32 µM and 14.3 µM | Malme-3M 66.2 µM and 35.6 µM | NCI-H226 > 100 µM | OVCAR-3 20.8 µM and 22.5 µM | OVCAR-4 29.8 µM and > 39 µM | OVCAR-5 > 100 µM | OVCAR-8 97.5 µM and > 87.7 µM | PC-3 46.3 µM and 28.4 µM | RXF 393 24.3 µM and 23 µM | SF-295 27.6 µM and 48.6 µM | SK-MEL-28 > 100 µM | SK-MEL-2 > 100 µM and > 56.8 µM | SK-OV-3 7.67 µM and 7.45 µM | SN12C > 26.7 µM and > 21.7 µM | SNB-19 > 100 µM and 98.2 µM | SR 5.82 µM and 4.76 µM | SW-620 > 100 µM | TK-10 > 29 µM and > 20.8 µM | U-251 37.2 µM and 21.4 µM | UACC-257 > 43.8 µM and > 51.2 µM | UACC-62 5.64 µM and 7.8 µM | UO-31 3.04 µM

O=C(c1cccc(C(=O)c2ccc3c4c(cccc24)C(=O)N(c2ccccc2)C3=O)c1)c1ccc2c3c(cccc13)C(=O)N(c1ccccc1)C2=O
> 100 µM: HCT-15
inactive: 786-0 > 100 µM | A498 17.3 µM | A549 > 100 µM | ACHN > 100 µM | BT-549 > 100 µM | CAKI-1 > 100 µM | COLO 205 > 100 µM | DU-145 > 100 µM | EKVX 38 µM | HCC 2998 > 100 µM | HCT-116 > 100 µM | HOP-62 88.7 µM | HOP-92 42.3 µM | HT-29 > 100 µM | Hs-578T 52.8 µM | IGROV-1 63.7 µM | K562 > 100 µM | KM12 > 100 µM | LOX IMVI 23.3 µM | M14 > 100 µM | MCF7 28.2 µM | MDA-MB-231 67.1 µM | MDA-MB-435 > 100 µM | MDA-N > 100 µM | MOLT-4 > 100 µM | Malme-3M > 100 µM | NCI-H226 > 100 µM | NCI-H23 > 100 µM | NCI-H460 > 100 µM | NCI-H522 > 100 µM | NCI/ADR-RES > 100 µM | OVCAR-3 > 100 µM | OVCAR-4 > 100 µM | OVCAR-5 > 100 µM | OVCAR-8 > 100 µM | PC-3 > 100 µM | RPMI-8226 > 100 µM | RXF 393 > 100 µM | SF-268 > 100 µM | SF-295 71.9 µM | SF-539 > 100 µM | SK-MEL-28 > 100 µM | SK-MEL-5 > 100 µM | SK-OV-3 > 100 µM | SN12C > 100 µM | SNB-19 > 100 µM | SNB-75 > 100 µM | SW-620 > 100 µM | TK-10 69.8 µM | U-251 > 100 µM | UACC-257 72.8 µM | UACC-62 40 µM | UO-31 > 100 µM
